From ChEMBL document CHEMBL2010759, “Scabronine M, a novel inhibitor of NGF-induced neurite outgrowth from PC12 cells from the fungus Sarcodon scabrosus” (Bioorg Med Chem Lett, 2012)
Calls of active or inactive are those of the source. No cut-off for these calls is given here.

How the values were obtained:
PC-12 [1] = assay: Inhibition of NGF-mediated neurite outgrowth in rat PC12 cells after 24 hrs by light microscopy; type: functional, cell-based
PC-12 [2] = assay: Increase of NGF-mediated neurite outgrowth in rat PC12 cells after 24 hrs by light microscopy; type: functional, cell-based
PC-12 [3] = assay: Increase of NGF-mediated neurite outgrowth in rat PC12 cells at 1 uM after 24 hrs by light microscopy (reference value: 21.06 +/- 1.27 %); type: functional
PC-12 [4] = assay: Inhibition of NGF-mediated neurite outgrowth in rat PC12 cells at 10 uM after 24 hrs by light microscopy (reference value: 21.06 +/- 1.27 %); type: functional; settings: PC-12, 24 h
PC-12 [5] = assay: Inhibition of NGF-mediated neurite outgrowth in rat PC12 cells at 50 uM after 24 hrs by light microscopy (reference value: 21.06 +/- 1.27 %); type: functional; settings: PC-12, 24 h
PC-12 [6] = assay: Inhibition of NGF-mediated neurite outgrowth in rat PC12 cells at 100 uM after 24 hrs by light microscopy (reference value: 21.06 +/- 1.27 %); type: functional; settings: PC-12, 24 h
PC-12 [7] = assay: Increase of NGF-induced neuronal differentiation in rat PC12 cells up to 100 uM after 24 hrs by light microscopy; type: functional, cell-based
PC-12 [8] = assay: Cytotoxicity against rat PC12 cells at 100 uM after 2 days by MTT assay; type: cell-based; settings: pc-12, 48 h
[9] = target: T1, Mitogen-activated protein kinase 1 and 3 (ERK2 and ERK1) (Rattus norvegicus) (UniProt P63086+P21708); assay: Inhibition of NGF-induced ERK1/2 phosphorylation in rat PC12 cells at 1 uM after 15 mins by Western blotting analysis relative to beta-actin level (reference value: 0.275 +/- 0.005); type: cell-based; settings: PC-12
[10] = target: T1, Mitogen-activated protein kinase 1 and 3 (ERK2 and ERK1) (Rattus norvegicus); assay: Inhibition of NGF-induced ERK1/2 phosphorylation in rat PC12 cells at 10 uM after 15 mins by Western blotting analysis relative to beta-actin level (reference value: 0.275 +/- 0.005); type: cell-based; settings: PC-12
[11] = target: T1, Mitogen-activated protein kinase 1 and 3 (ERK2 and ERK1) (Rattus norvegicus); assay: Inhibition of NGF-induced ERK1/2 phosphorylation in rat PC12 cells at 50 uM after 15 mins by Western blotting analysis relative to beta-actin level (reference value: 0.275 +/- 0.005); type: cell-based; settings: PC-12
[12] = target: T1, Mitogen-activated protein kinase 1 and 3 (ERK2 and ERK1) (Rattus norvegicus); assay: Inhibition of NGF-induced ERK1/2 phosphorylation in rat PC12 cells after 15 mins by Western blotting analysis relative to beta-actin level; type: cell-based; settings: PC-12
[13] = target: High affinity nerve growth factor receptor (Rattus norvegicus) (UniProt P35739); assay: Inhibition of NGF-induced TrkA receptor phosphorylation in rat PC12 cells at 1 uM after 15 mins by ELISA relative to control; type: cell-based; settings: PC-12
[14] = target: High affinity nerve growth factor receptor (Rattus norvegicus) (UniProt P35739); assay: Inhibition of NGF-induced TrkA receptor phosphorylation in rat PC12 cells at 10 uM after 15 mins by ELISA relative to control; type: cell-based; settings: PC-12
[15] = target: High affinity nerve growth factor receptor (Rattus norvegicus) (UniProt P35739); assay: Inhibition of NGF-induced TrkA receptor phosphorylation in rat PC12 cells at 50 uM after 15 mins by ELISA relative to control; type: cell-based; settings: PC-12
[16] = target: High affinity nerve growth factor receptor (Rattus norvegicus) (UniProt P35739); assay: Inhibition of NGF-induced TrkA receptor phosphorylation in rat PC12 cells after 15 mins by ELISA relative to control; type: cell-based; settings: PC-12

T1 sequence (P21708 whole entry, looked up): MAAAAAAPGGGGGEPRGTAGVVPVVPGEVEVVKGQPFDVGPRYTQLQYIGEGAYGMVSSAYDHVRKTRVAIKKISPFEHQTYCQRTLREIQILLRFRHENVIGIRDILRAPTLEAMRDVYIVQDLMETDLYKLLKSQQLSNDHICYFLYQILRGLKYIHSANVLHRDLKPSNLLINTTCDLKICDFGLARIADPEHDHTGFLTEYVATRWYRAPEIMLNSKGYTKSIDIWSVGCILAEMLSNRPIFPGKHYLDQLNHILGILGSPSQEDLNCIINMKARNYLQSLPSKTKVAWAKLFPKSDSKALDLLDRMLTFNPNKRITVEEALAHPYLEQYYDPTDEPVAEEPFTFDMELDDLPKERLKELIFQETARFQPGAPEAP
T1 sequence (P63086 whole entry, looked up): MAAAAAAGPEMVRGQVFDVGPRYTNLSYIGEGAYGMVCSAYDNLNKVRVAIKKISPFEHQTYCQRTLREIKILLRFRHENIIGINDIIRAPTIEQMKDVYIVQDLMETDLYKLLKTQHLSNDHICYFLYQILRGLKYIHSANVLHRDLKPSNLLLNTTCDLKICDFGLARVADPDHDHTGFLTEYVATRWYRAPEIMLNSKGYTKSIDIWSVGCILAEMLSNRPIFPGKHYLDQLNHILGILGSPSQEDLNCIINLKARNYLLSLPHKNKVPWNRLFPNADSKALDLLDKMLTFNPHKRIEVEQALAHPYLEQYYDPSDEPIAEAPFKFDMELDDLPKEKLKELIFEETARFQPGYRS
High affinity nerve growth factor receptor (Rattus norvegicus), sequence (P35739 whole entry): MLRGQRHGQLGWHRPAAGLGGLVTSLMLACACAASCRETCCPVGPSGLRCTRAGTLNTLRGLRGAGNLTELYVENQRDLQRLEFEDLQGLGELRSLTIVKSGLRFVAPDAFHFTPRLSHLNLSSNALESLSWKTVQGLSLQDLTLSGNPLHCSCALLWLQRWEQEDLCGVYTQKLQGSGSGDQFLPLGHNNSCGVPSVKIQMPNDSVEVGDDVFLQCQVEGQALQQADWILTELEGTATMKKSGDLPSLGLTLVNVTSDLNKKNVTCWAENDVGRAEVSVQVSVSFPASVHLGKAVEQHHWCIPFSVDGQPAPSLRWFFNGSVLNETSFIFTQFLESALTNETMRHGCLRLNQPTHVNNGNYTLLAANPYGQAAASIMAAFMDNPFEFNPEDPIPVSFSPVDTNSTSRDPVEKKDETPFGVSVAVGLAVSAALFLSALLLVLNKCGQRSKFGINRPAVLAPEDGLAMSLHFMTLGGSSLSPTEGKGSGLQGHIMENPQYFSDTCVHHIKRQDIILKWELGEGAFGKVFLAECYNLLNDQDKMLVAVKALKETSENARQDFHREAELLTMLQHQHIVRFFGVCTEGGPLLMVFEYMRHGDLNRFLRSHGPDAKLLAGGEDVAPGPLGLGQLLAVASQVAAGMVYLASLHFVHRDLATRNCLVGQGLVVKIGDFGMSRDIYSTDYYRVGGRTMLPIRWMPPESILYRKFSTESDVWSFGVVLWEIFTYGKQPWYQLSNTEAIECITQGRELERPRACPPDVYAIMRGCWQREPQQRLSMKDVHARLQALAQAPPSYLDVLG

In the case of `CC(C)[C@@H](C)/C=C/[C@@H](C)[C@H]1CC[C@@H]2[C@]1(C)CC[C@H]1[C@]23C=C[C@]2(C[C@@H](O)CC[C@]12C)OO3`, the inhibition (PC-12 [1]) is reported as “inactive”.
For `CC(C)[C@@H](C)/C=C/[C@@H](C)[C@H]1CC[C@@H]2[C@]1(C)CC[C@H]1[C@]23C=C[C@]2(C[C@@H](O[C@@H]4O[C@H](CO)[C@@H](O)[C@H](O)[C@H]4O)CC[C@]12C)OO3`, the inhibition (PC-12 [1]) was “inactive”.
`CC(C)[C@@H](C)/C=C/[C@@H](C)[C@H]1CC[C@H]2C3=CC(=O)[C@@]4(O)C[C@@H](O)CC[C@]4(C)[C@@]3(O)CC[C@]12C` was tested, and the inhibition (PC-12 [1]) was “inactive”.
With `CC(C)[C@@H](C)/C=C/[C@@H](C)[C@H]1CC[C@H]2C3=CC=C4C[C@@H](O)CC[C@]4(C)[C@H]3CC[C@]12C` the inhibition (PC-12 [1]) was “inactive”.
In the case of `CC(C)[C@@H](C)/C=C/[C@@H](C)[C@H]1CC[C@H]2C3=CC[C@H]4C[C@@H](O)CC[C@]4(C)[C@H]3CC[C@]12C`, the inhibition (PC-12 [1]) is reported as “inactive”.
For `CC(C)[C@@H](C)/C=C/[C@@H](C)[C@H]1CC[C@H]2C3=C[C@@H](O)[C@@]4(O)C[C@@H](O)CC[C@]4(C)[C@H]3CC[C@]12C`, the inhibition (PC-12 [1]) was “inactive”.
With `CC(C)[C@@H](C)/C=C/[C@@H](C)[C@H]1CC[C@H]2C3=C[C@@H](O)[C@@]4(O)C[C@@H](O[C@@H]5O[C@H](CO)[C@@H](O)[C@H](O)[C@H]5O)CC[C@]4(C)[C@H]3CC[C@]12C` the inhibition (PC-12 [1]) was “inactive”.
`CCCCCCCCCCCCCCC[C@@H](O)C(=O)N[C@@H](CO[C@@H]1O[C@H](CO)[C@@H](O)[C@H](O)[C@H]1O)[C@H](O)/C=C/CC/C=C(\C)CCCCCCCCC` was tested, and the inhibition (PC-12 [1]) was “inactive”.
For `CO[C@@H]1C=C2[C@@H]3CC[C@H]([C@H](C)/C=C/[C@H](C)C(C)C)[C@@]3(C)CC[C@]2(O)[C@@]2(C)CC[C@H](O)C[C@]12O`, the inhibition (PC-12 [1]) was “inactive”.
`C[C@H](CO)C1=C2C3=CC=C(C=O)C[C@H](O)[C@]3(C)CC[C@@]2(CO)CC1` was tested, and the inhibition (PC-12 [1]) was “inactive”.
In the case of `C[C@H](CO)C1=C2[C@H]3CC=C(C=O)CC(=O)[C@]3(C)CC[C@@]2(C)CC1`, the inhibition (PC-12 [1]) is reported as “Active” and the Activity (PC-12 [2]) is reported as “Active”.
`C[C@H](CO)[C@]12CC[C@]3(C)CC[C@@]4(C)C(=O)CC(C=O)=CC[C@@H]4[C@@]31O2` (relative stereo) [SCABRONINE M] was tested, and the inhibition (PC-12 [1]) was “Dose-dependent effect”, the Activity (PC-12 [3]) was 23.22% and the neurite-bearing cells at 10 µM (PC-12 [4]) was 9.15%. The neurite-bearing cells at 50 µM (PC-12 [5]) was 1.6%, the neurite-bearing cells at 100 µM (PC-12 [6]) was 0.1% and the Activity (PC-12 [7]) was “inactive”. For the same molecule, the Activity (PC-12 [8]) was “Non-toxic”, the Ratio [9] was 0.26 and the Ratio [10] was 0.24. The Ratio [11] was 0.21, the inhibition [12] was “Dose-dependent effect” and the fold change (FC) [13] was 1.61. The fold change (FC) [14] was 1.4, the fold change (FC) [15] was 1.34 and the inhibition [16] was “Dose-dependent effect”.
